Measured values: BigSolDB 2.1

Cc1cc(Cl)ccc1OCC(=O)O
solubility (mole fraction)
Details	278.15 K	283.15 K	288.15 K	293.15 K	298.15 K	303.15 K	308.15 K	313.15 K	318.15 K	323.15 K
in acetone	0.158	0.171	0.188	0.201	0.22	0.239	0.258	0.281	0.301	0.32
in acetonitrile	0.0254	0.0342	0.0458	0.0607	0.0789	0.0968	0.128	0.159	0.196	0.248
in ethanol	0.125	0.151	0.184	0.235	0.3	0.352	0.424	0.497	0.561	0.661
in ethyl acetate	0.101	0.104	0.116	0.127	0.146	0.17	0.192	0.221	0.25	0.299
in ethyl formate	0.0572	0.0618	0.0699	0.0798	0.0914	0.107	0.123	0.14	0.164	0.204
in isobutanol	0.0895	0.111	0.139	0.17	0.214	0.265	0.332	0.39	0.454	0.558
in isopropanol	0.123	0.134	0.154	0.175	0.2	0.237	0.27	0.314	0.364	0.428
in methyl acetate	0.0958	0.106	0.12	0.134	0.149	0.17	0.2	0.234	0.271	0.318
in n-butyl acetate	0.0915	0.0974	0.106	0.122	0.139	0.162	0.185	0.209	0.247	0.296
in n-propanol	0.127	0.138	0.159	0.197	0.238	0.279	0.342	0.405	0.46	0.54
in n-propyl acetate	0.0958	0.103	0.112	0.127	0.144	0.161	0.182	0.211	0.243	0.297
in toluene	0.00841	0.00904	0.011	0.0136	0.0172	0.0214	0.0274	0.0331	0.0419	0.0515
